# Data taken from ChEMBL document CHEMBL3232827, “Synthesis of substituted pyrimidines as corticotropin releasing factor (CRF) receptor ligands” (Eur J Med Chem, 2014).
# Biological target: T1, Corticotropin-releasing factor receptor 1 (Homo sapiens) (UniProt P34998)
# T1 sequence (whole entry): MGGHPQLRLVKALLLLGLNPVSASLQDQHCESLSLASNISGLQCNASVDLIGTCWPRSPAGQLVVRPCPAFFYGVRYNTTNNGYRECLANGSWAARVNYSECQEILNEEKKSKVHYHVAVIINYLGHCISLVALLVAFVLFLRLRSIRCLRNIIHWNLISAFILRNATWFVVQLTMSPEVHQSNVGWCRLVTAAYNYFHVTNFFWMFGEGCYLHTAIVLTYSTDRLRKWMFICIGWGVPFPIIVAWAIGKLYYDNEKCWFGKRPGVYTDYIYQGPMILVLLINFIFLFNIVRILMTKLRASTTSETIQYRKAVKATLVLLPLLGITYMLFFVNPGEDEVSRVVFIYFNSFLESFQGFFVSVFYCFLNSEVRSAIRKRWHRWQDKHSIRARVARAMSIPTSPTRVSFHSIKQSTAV
# Test: Displacement of [125I]Tyr0sauvagine from human CRF1 receptor expressed in HEK293 cell membrane at 500 nM after 120 mins by gamma scintillation counting analysis
# Format: cell membranes
row,Structure (SMILES),inhibition
1,CCSc1c(Nc2c(C)cc(C)cc2C)nc(C)nc1N(CC)CC,< 50%
2,CCCN(CC1CC1)c1nc(C)nc(Nc2ccc(C(C)C)cc2Br)c1SCC,< 50%
3,CCCN(CCC)c1nc(C)nc(Nc2ccc(C(C)C)cc2Br)c1SC,< 50%
4,CCN(CC)c1nc(C)nc(Nc2c(C)cc(C)cc2C)c1SC,< 50%
5,CCSc1c(Nc2c(C)cc(C)cc2C)ncnc1N(CC)CC,< 50%
6,CCCN(CCC)c1nc(C)nc(Nc2ccc(C(C)C)cc2Br)c1SCC,< 50%
7,CCCCN(CC)c1nc(C)nc(Nc2ccc(C(C)C)cc2Br)c1SCC,< 50%
8,CCN(CC)c1nc(C)nc(Nc2ccc(C(C)C)cc2Br)c1SC,< 50%
9,CCCCN(CC)c1nc(C)nc(Nc2ccc(C(C)C)cc2Br)c1SC,< 50%
10,CCCN(CC1CC1)c1ncnc(Nc2c(C)cc(C)cc2C)c1SC,< 50%
11,CCCCN(CC)c1nc(C)nc(Nc2c(C)cc(C)cc2C)c1SC,< 50%
12,COCCN(CCOC)c1nc(C)nc(Nc2ccc(C(C)C)cc2Br)c1SC,< 50%
13,CCSc1c(Nc2c(C)cc(C)cc2C)ncnc1N(CCOC)CCOC,< 50%
14,CCSc1c(Nc2ccc(C(C)C)cc2Br)nc(C)nc1N(CC)CC,< 50%
15,CCCN(CCC)c1ncnc(Nc2c(C)cc(C)cc2C)c1SCC,< 50%

# The next lines start with the values.
row,inhibition,Structure (SMILES)
1,< 50%,CCCN(CC1CC1)c1nc(C)nc(Nc2c(C)cc(C)cc2C)c1SC
2,< 50%,CCCCN(CC)c1nc(C)nc(Nc2c(C)cc(C)cc2C)c1SCC
3,< 50%,CCCCN(CC)c1ncnc(Nc2c(C)cc(C)cc2C)c1SCC
4,< 50%,CCSc1c(Nc2ccc(C(C)C)cc2Br)nc(C)nc1N(CCOC)CCOC
5,< 50%,CCCCN(CC)c1ncnc(Nc2c(C)cc(C)cc2C)c1SC
6,< 50%,CCCN(CCC)c1nc(C)nc(Nc2c(C)cc(C)cc2C)c1SC
7,< 50%,CCCN(CC1CC1)c1nc(C)nc(Nc2ccc(C(C)C)cc2Br)c1SC
8,< 50%,COCCN(CCOC)c1ncnc(Nc2c(C)cc(C)cc2C)c1SC
9,< 50%,CCCN(CCC)c1ncnc(Nc2c(C)cc(C)cc2C)c1SC

# Biological target: T2, Corticotropin-releasing factor receptor 1 (Homo sapiens, UniProt P34998)
# T2 sequence (P34998 whole entry): T1 sequence (whole entry)
# Test: (§1) Displacement of [125I]Tyr0sauvagine from human CRF1 receptor expressed in HEK293 cell membrane after 120 mins by gamma scintillation counting analysis
# Format: cell membranes
row,Structure (SMILES),IC50
1,COCCN(CCOC)c1nc(C)nc(Nc2c(C)cc(C)cc2C)c1SC,275 nM
2,CCCN(CC1CC1)c1nc(C)nc(Nc2c(C)cc(C)cc2C)c1SCC,245 nM
3,CCCCN(CC)c1nc(C)nc2c1c(C)c(C)n2-c1c(C)cc(C)cc1C [ANTALARMIN],18.6 nM

# Further lines, results first:
row,IC50,Structure (SMILES)
1,537 nM,CCCN(CCC)c1nc(C)nc(Nc2c(C)cc(C)cc2C)c1SCC
2,589 nM,CCSc1c(Nc2c(C)cc(C)cc2C)nc(C)nc1N(CCOC)CCOC

# Biological target: T1, Corticotropin-releasing factor receptor 1 (Homo sapiens)
# Test: as §1
# Format: cell membranes
row,Structure (SMILES),inhibition
1,COCCN(CCOC)c1nc(C)nc(Nc2c(C)cc(C)cc2C)c1SC,Dose-dependent effect
2,CCCN(CC1CC1)c1nc(C)nc(Nc2c(C)cc(C)cc2C)c1SCC,Dose-dependent effect

# Second part, the compound after the results:
row,inhibition,Structure (SMILES)
1,Dose-dependent effect,CCCN(CCC)c1nc(C)nc(Nc2c(C)cc(C)cc2C)c1SCC
2,Dose-dependent effect,CCSc1c(Nc2c(C)cc(C)cc2C)nc(C)nc1N(CCOC)CCOC
